According to patent publication US11214594B2, “Antimicrobial peptide having synergistic antibacterial effect with antibiotics on multidrug resistant bacteria, and use thereof” (priority 2016, dated 2022):
In brackets after ≈: the same amount, converted by molar mass. Where a SMILES comes first, the peptide text is derived from it. [ ]: non-standard residue; d: D form.

Assays:
[1] = system: MDRAB 12035; assay: MIC of antibiotic during combined treatment with antimicrobial peptide; format: cell-based, Acinetobacter baumannii
Summary of the method: (§1)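 Strains in MH medium at 2×10^6 CFU/ml were mixed with peptide diluted stepwise (2:1) from its MIC, then antibiotic dilutions in MH medium were added to give the antibiotic MIC. The reversed set-up, peptide titrated against fixed antibiotic, gave the peptide MIC.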

[2] = system: MDREC 1238; format: cell-based, Escherichia coli
Summary of the method: (§2)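 Broth microdilution in MH medium: bacterial strains diluted to 2×10^6 CFU were mixed with equal volumes of peptide serially diluted twofold in MH medium.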

[3] = system: MDRST 8007; assay: Minimal inhibitory concentration (MIC), single agent; format: cell-based, Salmonella typhimurium; conditions: agent alone
Summary of the method: as §2

[4] = system: MDRAB 12036; format: cell-based, Acinetobacter baumannii
Summary of the method: as §2

[5] = system: multi-drug resistant bacteria; assay: MIC, summary statements for multi-drug resistant bacteria; format: cell-based
Method: For the antibacterial activity, a minimal inhibitory concentration (MIC) of a peptide in which fungus bodies were not split in an MH medium with sufficient nutrients was measured.
Specifically, the strains described in the following [Table 2] were purchased and diluted with an MH medium such that the number of bacteria was 2×10^6 colony-forming units (CFUs), 100 μl of each of the diluted strains was aliquoted into a 96-well microtiter plate, and then 100 μl of a peptide solution diluted with the MH medium (solution diluted stepwise at 2: 1) was added to each well.

[6] = system: S. typhimurium; assay: microbe, parasite or virus in culture; format: cell-based, Salmonella typhimurium
Summary of the method: as §2

[7] = system: MDRPA 2002; format: cell-based, Pseudomonas aeruginosa
Summary of the method: as §2

[8] = system: MDRPA 2003; format: cell-based, Pseudomonas aeruginosa
Summary of the method: as §2

[9] = system: MRSA 3114; format: cell-based, Staphylococcus aureus; conditions: 3114
Summary of the method: as §2

[10] = system: MRSA 3126; format: cell-based, Staphylococcus aureus; conditions: 3126
Summary of the method: as §2

[11] = system: MDREC 1229; assay: MIC of antibiotic during combined treatment with antimicrobial peptide; format: cell-based, Escherichia coli
Summary of the method: as §1

[12] = peptide treatment concentration 1 μg/ml
[13] = peptide treatment concentration 2 μg/ml
[14] = peptide treatment concentration 4 μg/ml
[15] = peptide treatment concentration 6 μg/ml
[16] = peptide treatment concentration 8 μg/ml
[17] = peptide treatment concentration 16 μg/ml
[18] = peptide treatment concentration 32 μg/ml
[19] = peptide treatment concentration 64 μg/ml

CC[C@H](C)[C@H](NC(=O)[C@H](CCCCN)NC(=O)[C@H](Cc1c[nH]c2ccccc12)NC(=O)[C@@H](N)CCCNC(=N)N)C(=O)N[C@@H](Cc1ccccc1)C(=O)N[C@@H](CCCCN)C(=O)N[C@@H](CCCCN)C(=O)N[C@H](C(=O)N1CCC[C@H]1C(=O)N[C@@H](CCCCN)C(=O)N[C@@H](Cc1ccccc1)C(=O)N[C@@H](CC(C)C)C(=O)N[C@@H](Cc1c[nH]cn1)C(=O)N[C@@H](CCC(=O)O)C(=O)N[C@@H](C)C(=O)N[C@@H](CCCCN)C(=O)N[C@@H](CCCCN)C(=O)N[C@@H](Cc1c[nH]c2ccccc12)C(N)=O)[C@@H](C)CC [PapMA-14, RWK IFK KIP KFL HEA KKW-NH2] (H-RWKIFKKIPKFLHEAKKW-NH2; N-terminus assumed)
Erythromycin MIC during combined treatment with peptide [1, 12]: 16 µg/mL
Linezolid MIC during combined treatment with peptide [1, 12]: 128 µg/mL
Vancomycin MIC during combined treatment with peptide [1, 12]: >128 µg/mL
Erythromycin MIC during combined treatment with peptide [1, 13]: 8 µg/mL
Linezolid MIC during combined treatment with peptide [1, 13]: 64 µg/mL
Vancomycin MIC during combined treatment with peptide [1, 13]: 64 µg/mL
Erythromycin MIC during combined treatment with peptide [1, 14]: 4 µg/mL
Linezolid MIC during combined treatment with peptide [1, 14]: 16 µg/mL
Vancomycin MIC during combined treatment with peptide [1, 14]: 16 µg/mL
Erythromycin MIC during combined treatment with peptide [1, 15]: 1 µg/mL
Linezolid MIC during combined treatment with peptide [1, 15]: 4 µg/mL
Vancomycin MIC during combined treatment with peptide [1, 15]: 4 µg/mL
Erythromycin MIC during combined treatment with peptide [1, 16]: 0.5 µg/mL
Linezolid MIC during combined treatment with peptide [1, 16]: 1 µg/mL
Vancomycin MIC during combined treatment with peptide [1, 16]: 1 µg/mL
Erythromycin MIC during combined treatment with peptide [1, 17]: 0 µg/mL
Linezolid MIC during combined treatment with peptide [1, 17]: 0 µg/mL
Vancomycin MIC during combined treatment with peptide [1, 17]: 0 µg/mL
Erythromycin MIC during combined treatment with peptide [1, 18]: 0 µg/mL
Linezolid MIC during combined treatment with peptide [1, 18]: 0 µg/mL
Vancomycin MIC during combined treatment with peptide [1, 18]: 0 µg/mL
Erythromycin MIC during combined treatment with peptide [1, 19]: 0 µg/mL
Linezolid MIC during combined treatment with peptide [1, 19]: 0 µg/mL
Vancomycin MIC during combined treatment with peptide [1, 19]: 0 µg/mL
Minimal inhibitory concentration MIC [2]: 16 µg/mL (≈ 6.71 µM)
Minimal inhibitory concentration MIC [3]: 16 µg/mL (≈ 6.71 µM)
Minimal inhibitory concentration MIC [4]: 16 µg/mL (≈ 6.71 µM)
Antibacterial activity relative to PapMA-1 [5]: twice to four times higher
Minimal inhibitory concentration MIC [6]: 16 µg/mL (≈ 6.71 µM)
Minimal inhibitory concentration MIC [7]: 64 µg/mL (≈ 26.9 µM)
Minimal inhibitory concentration MIC [8]: 64 µg/mL (≈ 26.9 µM)
Minimal inhibitory concentration MIC [9]: >128 µg/mL
Minimal inhibitory concentration MIC [10]: >128 µg/mL
Antibiotic MIC, Erythromycin [11, 12]: 128 µg/mL
Antibiotic MIC, Linezolid [11, 12]: >128 µg/mL
Antibiotic MIC, Vancomycin [11, 12]: >128 µg/mL
Antibiotic MIC, Erythromycin [11, 13]: 32 µg/mL
Antibiotic MIC, Linezolid [11, 13]: 128 µg/mL
Antibiotic MIC, Vancomycin [11, 13]: >128 µg/mL
Antibiotic MIC, Erythromycin [11, 14]: 8 µg/mL
Antibiotic MIC, Linezolid [11, 14]: 32 µg/mL
Antibiotic MIC, Vancomycin [11, 14]: 128 µg/mL
Antibiotic MIC, Erythromycin [11, 15]: 4 µg/mL
Antibiotic MIC, Linezolid [11, 15]: 16 µg/mL
Antibiotic MIC, Vancomycin [11, 15]: 32 µg/mL
Antibiotic MIC, Erythromycin [11, 16]: 1 µg/mL
Antibiotic MIC, Linezolid [11, 16]: 16 µg/mL
Antibiotic MIC, Vancomycin [11, 16]: 8 µg/mL
Antibiotic MIC, Erythromycin [11, 17]: 0 µg/mL
Antibiotic MIC, Linezolid [11, 17]: 0 µg/mL
Antibiotic MIC, Vancomycin [11, 17]: 0 µg/mL
Antibiotic MIC, Erythromycin [11, 18]: 0 µg/mL
Antibiotic MIC, Linezolid [11, 18]: 0 µg/mL
Antibiotic MIC, Vancomycin [11, 18]: 0 µg/mL
Antibiotic MIC, Erythromycin [11, 19]: 0 µg/mL
Antibiotic MIC, Linezolid [11, 19]: 0 µg/mL
Antibiotic MIC, Vancomycin [11, 19]: 0 µg/mL

CC[C@H](C)[C@H](NC(=O)[C@H](CCCCN)NC(=O)[C@H](Cc1c[nH]c2ccccc12)NC(=O)[C@@H](N)CCCNC(=N)N)C(=O)N[C@@H](Cc1ccccc1)C(=O)N[C@@H](CCCCN)C(=O)N[C@@H](CCCCN)C(=O)N[C@H](C(=O)N[C@H](CCCCN)C(=O)N[C@@H](CCCCN)C(=O)N[C@@H](CC(C)C)C(=O)N[C@@H](CC(C)C)C(=O)N[C@@H](Cc1c[nH]cn1)C(=O)N[C@@H](CO)C(=O)N[C@@H](Cc1ccccc1)C(=O)N[C@@H](CCCCN)C(=O)N[C@@H](CCCCN)C(=O)N[C@@H](Cc1ccccc1)C(N)=O)[C@@H](C)CC [PapMA-15, RWK IFK KIk KLL HSF KKF-NH2] (H-RWKIFKKI[dK]KLLHSFKKF-NH2; N-terminus assumed)
Erythromycin MIC during combined treatment with peptide [1, 12]: 32 µg/mL
Linezolid MIC during combined treatment with peptide [1, 12]: >128 µg/mL
Vancomycin MIC during combined treatment with peptide [1, 12]: >128 µg/mL
Erythromycin MIC during combined treatment with peptide [1, 13]: 32 µg/mL
Linezolid MIC during combined treatment with peptide [1, 13]: >128 µg/mL
Vancomycin MIC during combined treatment with peptide [1, 13]: >128 µg/mL
Erythromycin MIC during combined treatment with peptide [1, 14]: 16 µg/mL
Linezolid MIC during combined treatment with peptide [1, 14]: 64 µg/mL
Vancomycin MIC during combined treatment with peptide [1, 14]: 128 µg/mL
Erythromycin MIC during combined treatment with peptide [1, 15]: 2 µg/mL
Linezolid MIC during combined treatment with peptide [1, 15]: 64 µg/mL
Vancomycin MIC during combined treatment with peptide [1, 15]: 32 µg/mL
Erythromycin MIC during combined treatment with peptide [1, 16]: 1 µg/mL
Linezolid MIC during combined treatment with peptide [1, 16]: 32 µg/mL
Vancomycin MIC during combined treatment with peptide [1, 16]: 32 µg/mL
Erythromycin MIC during combined treatment with peptide [1, 17]: 0.25 µg/mL
Linezolid MIC during combined treatment with peptide [1, 17]: 4 µg/mL
Vancomycin MIC during combined treatment with peptide [1, 17]: 16 µg/mL
Erythromycin MIC during combined treatment with peptide [1, 18]: 0 µg/mL
Linezolid MIC during combined treatment with peptide [1, 18]: 0 µg/mL
Vancomycin MIC during combined treatment with peptide [1, 18]: 0 µg/mL
Erythromycin MIC during combined treatment with peptide [1, 19]: 0 µg/mL
Linezolid MIC during combined treatment with peptide [1, 19]: 0 µg/mL
Vancomycin MIC during combined treatment with peptide [1, 19]: 0 µg/mL
Minimal inhibitory concentration MIC [2]: 32 µg/mL (≈ 13.5 µM)
Minimal inhibitory concentration MIC [3]: 64 µg/mL (≈ 26.9 µM)
Minimal inhibitory concentration MIC [4]: 32 µg/mL (≈ 13.5 µM)
Antibacterial activity relative to PapMA-1 [5]: twice to four times higher
Minimal inhibitory concentration MIC [6]: 32 µg/mL (≈ 13.5 µM)
Minimal inhibitory concentration MIC [7]: 32 µg/mL (≈ 13.5 µM)
Minimal inhibitory concentration MIC [8]: 32 µg/mL (≈ 13.5 µM)
Minimal inhibitory concentration MIC [9]: >128 µg/mL
Minimal inhibitory concentration MIC [10]: >128 µg/mL
Antibiotic MIC, Erythromycin [11, 12]: >128 µg/mL
Antibiotic MIC, Linezolid [11, 12]: >128 µg/mL
Antibiotic MIC, Vancomycin [11, 12]: >128 µg/mL
Antibiotic MIC, Erythromycin [11, 13]: 32 µg/mL
Antibiotic MIC, Linezolid [11, 13]: 128 µg/mL
Antibiotic MIC, Vancomycin [11, 13]: >128 µg/mL
Antibiotic MIC, Erythromycin [11, 14]: 16 µg/mL
Antibiotic MIC, Linezolid [11, 14]: 64 µg/mL
Antibiotic MIC, Vancomycin [11, 14]: >128 µg/mL
Antibiotic MIC, Erythromycin [11, 15]: 8 µg/mL
Antibiotic MIC, Linezolid [11, 15]: 64 µg/mL
Antibiotic MIC, Vancomycin [11, 15]: 64 µg/mL
Antibiotic MIC, Erythromycin [11, 16]: 4 µg/mL
Antibiotic MIC, Linezolid [11, 16]: 32 µg/mL
Antibiotic MIC, Vancomycin [11, 16]: 32 µg/mL
Antibiotic MIC, Erythromycin [11, 17]: 1 µg/mL
Antibiotic MIC, Linezolid [11, 17]: 16 µg/mL
Antibiotic MIC, Vancomycin [11, 17]: 16 µg/mL
Antibiotic MIC, Erythromycin [11, 18]: 0 µg/mL
Antibiotic MIC, Linezolid [11, 18]: 0 µg/mL
Antibiotic MIC, Vancomycin [11, 18]: 0 µg/mL
Antibiotic MIC, Erythromycin [11, 19]: 0 µg/mL
Antibiotic MIC, Linezolid [11, 19]: 0 µg/mL
Antibiotic MIC, Vancomycin [11, 19]: 0 µg/mL
